Results taken from patent US20060020110A1, “Synthetic peptides that bind to the hepatitis B virus core and E antigens” (priority 2000, published 2006).

What was measured:
[1] = molecular target: T1, HBcAg (Hepatitis B virus genotype D subtype ayw, UniProt P03146)
Description: To evaluate the efficacy of the specificity exchangers described above, several binding assays using a mAb specific for HSV gG2 were conducted. In one assay, the various specificity exchangers were coated onto microtiterplates and were bound with the mAb specific for HSV gG2. […] ID. […] In another assay, HBcAg was coated onto microtiter plates, specificity exchanger was added (20 μg/well), and the binding of the mAb specific for HSV gG2 was determined. […] ID. […] In another binding assay, HBeAg was coated onto microtiter plates, specificity exchanger was added (20 μg/well), and the binding of the mAb specific for HSV gG2 was determined. […] ID. […] The characterization assays used to evaluate binding partners can also be used and/or modified for the analysis of the specificity exchangers.

[2] = tested on: mAb specific for HSV gG2; test: gG2 mAb binding to fusion peptide on solid phase
Source text: (§1) ID. […] The specificity exchangers provided in SEQ. ID. […] Similarly, the specificity exchangers provided in SEQ. ID.

[3] = tested on: B cell - mediated antigen presentation of HBcAg to experienced T cells; test: Inhibition of B cell-mediated antigen presentation of HBcAg to experienced T cells; assay type: cell-based, Balb/c mice
Description: A characterization assay that was used to evaluate the ability of a binding partner to modulate a host immune system response to HBV was conducted as follows. Groups of Balb/c mice were immunized subcutaneously with 20 μg HBcAg. Ten days later, draining lymph nodes were harvested and experienced CD4^+ T cells were purified using anti-CD4 coated magnetic beads (Dynal A S, Oslo, Norway) according to the manufacturers instructions. Naïve B cells were obtained from syngeneic mice, which had not been immunized. These B cells were used as antigen presenting cells in the characterization assay.
The ability of the different mAbs and peptides to block B cell uptake and antigen presentation of HBcAg-peptides to HBcAg-specific CD4+ T cells was then tested in vitro. The cell populations were mixed at a B/T cell ratio of 1:5 and added at a final concentration of approximately 2.5×10^5 to 5.0×10^5 cells per well in a 96 well microplate. Approximately, 20 μg of HBcAg was preincubated with the binding partner. The binding partner mixtures were then added to the cells and the plates were incubated for 26 to 96 hours at 37° C. The effect of the binding partners on T cell proliferation was determined by monitoring [^3H] thymidine incorporation.

[4] = molecular target: T2, HBeAg (Hepatitis B virus genotype D subtype ayw, UniProt P0C573); test: Redirection of HSV gG2 mAb to HBeAg on solid phase by fusion peptide in solution; assay type: binding
T2 construct: containing nine residues of pre-core and the 150 first residues of HBcAg; made in house
T2 sequence (P0C573 21-179): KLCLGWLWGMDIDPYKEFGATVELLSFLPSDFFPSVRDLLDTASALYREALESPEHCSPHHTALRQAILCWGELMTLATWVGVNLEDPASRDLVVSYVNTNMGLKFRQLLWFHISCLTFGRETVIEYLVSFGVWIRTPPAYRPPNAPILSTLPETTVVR
Source text: as §1

[5] = molecular target: T1, HBcAg; remark: listed apart in the source
Description: Accordingly, the assay was conducted by mixing the antibody to be tested with the appropriate antigen and allowing binding to occur overnight. Subsequently, rabbit complement, which is consumed if the antibody binds the antigen and the complement, was added. To determine the amount of residual complement in the mixture, sheep erythrocytes and an antibody to sheep erythrocytes was added.

[6] = molecular target: T3, serum HBeAg (Hepatitis B virus genotype D subtype ayw, UniProt P0C573); test: In vivo aggregation of serum HBeAg in HBeAg-transgenic mice; details: second group of experiments, i.p., final volume 0.5 ml
T3 construct: two HBeAg-transgenic mice; from tissue; host or cells: serum of HBeAg-transgenic mice (from Dr. David R Milich, The Scripps Research Institute)
T3 sequence (P0C573 20-183): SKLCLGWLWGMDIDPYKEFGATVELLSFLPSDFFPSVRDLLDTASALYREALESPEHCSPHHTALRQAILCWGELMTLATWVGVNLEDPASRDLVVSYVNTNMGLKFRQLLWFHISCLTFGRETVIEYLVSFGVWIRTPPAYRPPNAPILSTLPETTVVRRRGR
Description: By using an animal model of HBV infection, the therapeutic efficacy of a specificity exchanger directed to HBV was determined. In a first group of experiments, two HBeAg-transgenic mice (obtained from Dr. David R Milich, The Scripps Research Institute, La Jolla, Calif.) were injected ip. with 500 μl of undiluted hybridoma supernatants. The mice were then bled on day zero, two, six and nine post-injection. Sera were then tested for the change in serum HBeAg levels as determined by EIA (Sorin Biomedica, Saluggia, Italy).

[7] = fusion peptide in solution 20 μg/well
[8] = specificity exchanger 20 μg/well

T1 sequence (P03146 whole entry): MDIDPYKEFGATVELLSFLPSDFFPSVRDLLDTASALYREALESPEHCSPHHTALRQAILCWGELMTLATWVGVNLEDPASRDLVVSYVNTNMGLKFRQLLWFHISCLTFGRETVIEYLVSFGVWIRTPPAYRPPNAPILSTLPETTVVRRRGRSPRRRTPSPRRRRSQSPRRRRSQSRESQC

VKLSCKASGYIFTSHRGGPEE [SEQ. ID. No. 74]
gG2 mAb binding to indicated antigen on solid phase: HBcAg [1, 7]: 1.462 | Binding to immobilized HBcAg allowing binding of HSV gG2 mAb (in words) [1, 8]: appreciably bound the immobilized HBcAg | gG2 mAb binding to indicated antigen on solid phase: fusion peptide ([2]; no addition of fusion peptide in solution): 0.884 | Binding of mAb specific for HSV gG2 to coated specificity exchanger (in words) ([2]; specificity exchanger coated onto microtiterplates): appreciably bound the mAb | Inhibition of B cell mediated antigen presentation of HBcAg to specific CD4+ T cells (in words) [3]: inhibited B cell mediated antigen presentation | cpm ([3H] thymidine incorporation, T cell proliferation) ([3]; T + B cells, 20 μg HBcAg preincubated with inhibitor, positive control 573, background 110): 345 cpm | % inhibition of APC ([3]; T + B cells, 20 μg HBcAg, calculated from cpm versus positive control and background proliferation): 49% | gG2 mAb binding to indicated antigen on solid phase: HBeAg [4, 7]: 1.727 | Binding to immobilized HBeAg allowing binding of HSV gG2 mAb (in words) [4, 8]: appreciably bound the immobilized HBeAg | Complement binding of mAb-specificity exchanger-HBcAg complex (in words) ([5]; HSV mAb and specificity exchanger at equimolar ratios): able to bind complement | Ability to inhibit binding of mAb 4-2 to HBcAg (in words) ([5]; complement binding assay): appreciably inhibited the binding of mAb 4-2 to HBcAg | Ability to inhibit binding of mAb 9C8 to HBcAg (in words) ([5]; complement binding assay): unable to compete away bound mAb 9C8 | Fold change in serum HBeAg levels as determined by EIA in HBeAg-Tg mice ([6]; day 0 from injection): 1 | Fold change in serum HBeAg levels as determined by EIA in HBeAg-Tg mice ([6]; day 1 from injection): 1.5 | Fold change in serum HBeAg levels as determined by EIA in HBeAg-Tg mice ([6]; day 3 from injection): 2.3 | Fold change in serum HBeAg levels as determined by EIA in HBeAg-Tg mice ([6]; day 6 from injection): 2.3 | Fold change in serum HBeAg levels as determined by EIA in HBeAg-Tg mice ([6]; day 9 from injection): 3.3
